Data from ChEMBL document CHEMBL1151667, “Chlorochimaphilin: a new antibiotic from Moneses uniflora” (1996).
≈ marks a conversion by molar mass, not a printed value. Calls of active or inactive are those of the source. No cut-off for these calls is given here.

What was measured:
[1] = tested on: Escherichia coli; assay: Antimicrobial activity against Escherichia coli DC2 after 24 hrs by twofold serial microbroth dilution assay; format: functional
[2] = tested on: Pseudomonas aeruginosa; assay: Antimicrobial activity against Pseudomonas aeruginosa K799 after 24 hrs by twofold serial microbroth dilution assay; format: functional
[3] = tested on: Staphylococcus aureus; assay: Antimicrobial activity against Staphylococcus aureus SAP00017 after 24 hrs by twofold serial microbroth dilution assay; format: functional
[4] = tested on: Pseudomonas aeruginosa; assay: Antimicrobial activity against Pseudomonas aeruginosa Z61 after 24 hrs by twofold serial microbroth dilution assay; format: functional
[5] = tested on: Staphylococcus aureus; assay: Antimicrobial activity against Staphylococcus aureus RN4220 after 24 hrs by twofold serial microbroth dilution assay; format: functional
[6] = tested on: Candida albicans; assay: Antimicrobial activity against Candida albicans CAND105 after 48 hrs by twofold serial microbroth dilution assay; format: functional
[7] = tested on: Escherichia coli; assay: Antimicrobial activity against Escherichia coli UB1005 after 24 hrs by twofold serial microbroth dilution assay; settings: UB1005, 24 h
[8] = tested on: Bacillus subtilis; assay: Antimicrobial activity against Bacillus subtilis Vernon after 24 hrs by twofold serial microbroth dilution assay; format: functional
[9] = tested on: Escherichia coli; assay: Antimicrobial activity against Escherichia coli UB1005 at <=800 ug/ml after 24 hrs by twofold serial microbroth dilution assay; format: functional, organism-based
[10] = tested on: Pseudomonas aeruginosa; assay: Antimicrobial activity against Pseudomonas aeruginosa Z61 at <=800 ug/ml after 24 hrs by twofold serial microbroth dilution assay; format: functional, organism-based
[11] = tested on: Staphylococcus aureus; assay: Antimicrobial activity against Staphylococcus aureus SAP00017 at <=800 ug/ml after 24 hrs by twofold serial microbroth dilution assay; format: functional, organism-based
[12] = tested on: Bacillus subtilis; assay: Antimicrobial activity against Bacillus subtilis Vernon at <=800 ug/ml after 24 hrs by twofold serial microbroth dilution assay; format: functional, organism-based
[13] = tested on: Candida albicans; assay: Antimicrobial activity against Candida albicans CAND105 at <=800 ug/ml after 48 hrs by twofold serial microbroth dilution assay; format: functional, organism-based
[14] = tested on: Escherichia coli; assay: Antimicrobial activity against Escherichia coli DC2 at <=800 ug/ml after 24 hrs by twofold serial microbroth dilution assay; format: functional, organism-based
[15] = tested on: Pseudomonas aeruginosa; assay: Antimicrobial activity against Pseudomonas aeruginosa K799 at <=800 ug/ml after 24 hrs by twofold serial microbroth dilution assay; format: functional, organism-based
[16] = tested on: Staphylococcus aureus; assay: Antimicrobial activity against Staphylococcus aureus RN4220 at <=800 ug/ml after 24 hrs by twofold serial microbroth dilution assay; format: functional, organism-based
[17] = tested on: Aspergillus flavus; assay: Antimicrobial activity against Aspergillus flavus after 48 hrs by twofold serial microbroth dilution assay; format: functional
[18] = tested on: Saccharomyces cerevisiae; assay: Antimicrobial activity against Saccharomyces cerevisiae after 48 hrs by twofold serial microbroth dilution assay; format: functional
[19] = tested on: Fusarium tricinctum; assay: Antimicrobial activity against Fusarium tricinctum after 48 hrs by twofold serial microbroth dilution assay; format: functional
[20] = tested on: Aspergillus fumigatus; assay: Antimicrobial activity against Aspergillus fumigatus after 48 hrs by twofold serial microbroth dilution assay; format: functional
[21] = tested on: Nannizzia gypsea; assay: Antimicrobial activity against Microsporum gypseum after 48 hrs by twofold serial microbroth dilution assay; format: functional
[22] = tested on: Candida albicans; assay: Antimicrobial activity against Candida albicans after 48 hrs by twofold serial microbroth dilution assay; format: functional
[23] = tested on: Mycobacterium avium; assay: Antimicrobial activity against Mycobacterium avium 724 ATCC 25291 at 100 ug/disk after 2 weeks by disk diffusion method; format: functional, organism-based
[24] = tested on: Yarrowia lipolytica; assay: Antimicrobial activity against Candida lipolytica after 48 hrs by twofold serial microbroth dilution assay; format: functional
[25] = tested on: Mycobacterium tuberculosis; assay: Antimicrobial activity against Mycobacterium tuberculosis 107 ATCC 35801 at 100 ug/disk after 4 weeks by disk diffusion method; format: functional, organism-based
[26] = tested on: Respiratory syncytial virus; assay: Antiviral activity against Respiratory syncytial virus assessed as effect on virus-induced cytopathic effect at 200 ug/ml after 3 days; format: functional, organism-based
[27] = tested on: Human alphaherpesvirus 1; assay: Antiviral activity against Herpes simplex virus 1 assessed as effect on virus-induced cytopathic effect at 200 ug/ml after 3 days; format: functional, organism-based

| Molecule | MIC [1] [µg/mL] | MIC [2] [µg/mL] | MIC [3] [µg/mL] | MIC [4] [µg/mL] | MIC ([5]; RN4220, 24 h) [µg/mL] | MIC [6] [µg/mL] | MIC [7] [µg/mL] | MIC [8] [µg/mL] | Activity [9] | Activity [10] | Activity [11] | Activity [12] | Activity [13] | Activity [14] | Activity [15] | Activity [16] | further results |
| --- | --- | --- | --- | --- | --- | --- | --- | --- | --- | --- | --- | --- | --- | --- | --- | --- | --- |
| COc1cccc(OC)c1C(=O)N[C@@H]1C(=O)N2[C@@H]1SC(C)(C)[C@@H]2C(=O)O [METHICILLIN] | < 4 | 256 (≈ 673 µM) | 256 (≈ 673 µM) | < 4 | < 4 | > 512 | > 512 | 128 (≈ 336 µM) |  |  |  |  |  |  |  |  |  |
| COc1ccc2c(OC(C)=O)cc(OC)c(OC(C)=O)c2c1OC(C)=O |  |  |  |  |  |  |  |  | inactive | inactive | inactive | inactive | inactive | inactive | inactive | inactive |  |
| C[C@@H]1[C@H](O)[C@@H](C)/C=C/C=C/C=C/C=C/C=C/C=C/C=C/[C@H](O[C@@H]2O[C@H](C)[C@@H](O)[C@H](N)[C@@H]2O)C[C@@H]2O[C@](O)(C[C@@H](O)C[C@@H](O)[C@H](O)CC[C@@H](O)C[C@@H](O)CC(=O)O[C@H]1C)C[C@H](O)[C@H]2C(=O)O [AMPHOTERICIN B] | > 5 | > 5 | > 5 | > 5 | > 5 | 0.1 (≈ 0.108 µM) | > 5 | > 5 |  |  |  |  |  |  |  |  |  |
| GENTAMICIN | 1 | 1 | > 32 | 0.3 |  | > 32 |  | 16 |  |  |  |  |  |  |  |  | MIC [5]: 0.3 µg/mL |
| Cc1ccc2c(O[C@@H]3O[C@@H](C)[C@H](O)[C@@H](O)[C@H]3O)c(O)c(C)c(O)c2c1 |  |  |  |  |  |  |  |  | inactive | inactive | inactive | inactive | inactive | inactive | inactive | inactive |  |
| CC1=CC(=O)c2ccc(C)cc2C1=O [CHIMAPHILIN] | > 800 | > 800 | 25 (≈ 134 µM) | > 800 | 25 (≈ 134 µM) | 400 (≈ 2150 µM) | > 800 | 50 (≈ 269 µM) |  |  |  |  |  |  |  |  | MIC [17]: 25 µg/mL (≈ 134 µM); MIC [18]: 50 µg/mL (≈ 269 µM); MIC [19]: 12.5 µg/mL (≈ 67.1 µM); MIC [20]: 50 µg/mL (≈ 269 µM); MIC [21]: 6.2 µg/mL (≈ 33.3 µM); MIC [22]: 50 µg/mL (≈ 269 µM); Activity [23]: inactive; MIC [24]: 50 µg/mL (≈ 269 µM); Activity [25]: inactive; Activity [26]: inactive; Activity [27]: inactive |
